# Data published in US6403082B1, “Bacteriocins, transport and vector system and method of use thereof” (priority 1996, dated 2002).
# Marks after values point to notes of the source that are not given here.
# Assays:
# Test in all cases: Spot test of partially purified bacteriocins on strains grown on agar
# Streptococcus = tested on: Streptococcus
# Leuconostoc = tested on: Leuconostoc
# G negative strains = type: cell-based
# Clostridia spores = type: cell-based, Clostridium
# Brochothrix = tested on: Brochothrix
# Bacillus spores = type: cell-based
# Lactobacillus = tested on: Lactobacillus
# Listeria = tested on: Listeria
# Staphylococcus = tested on: Staphylococcus
# Carnobacteria = tested on: Carnobacteria
# [1] = tested on: Clostridia vegetative cells; type: cell-based, Clostridium
# Enterococcus = tested on: Enterococcus
# Pediococcus = tested on: Pediococcus
# Lactococcus = tested on: Lactococcus
# [2] = tested on: Bacillus vegetative cells; type: cell-based
# [3] = 8AU (10 μl/spot of 800 AU/ml), listed as Mesent Y105
# [4] = 1AU (10 μl/spot of 100 AU/ml), listed as Mesent Y105
substance,measurement,setting,value
"Mesen Y105: mesentericin Y105, an anti-Listeria bacteriocin from Leuconostoc mesenteroides (KYYGNGVHCTKSGCSVNWGEAASAGIHRLANGGNGFW; UniProt P38577 25-61, looked up)",Number of strains inhibited/Number of strains tested,Streptococcus; 1AU (10 μl/spot of 100 AU/ml),0/3
same,Number of strains inhibited/Number of strains tested,Streptococcus; 8AU (10 μl/spot of 800 AU/ml),3/3^g
same,Number of strains inhibited/Number of strains tested,Streptococcus; [3],3/3
same,Number of strains inhibited/Number of strains tested,Leuconostoc; 1AU (10 μl/spot of 100 AU/ml),5/9
same,Number of strains inhibited/Number of strains tested,Leuconostoc; 8AU (10 μl/spot of 800 AU/ml),6/9^o
same,Number of strains inhibited/Number of strains tested,Leuconostoc; [3],6/9
same,Number of strains inhibited/Number of strains tested,G negative strains; 1AU (10 μl/spot of 100 AU/ml),0/29
same,Number of strains inhibited/Number of strains tested,G negative strains; 8AU (10 μl/spot of 800 AU/ml),0/29
same,Number of strains inhibited/Number of strains tested,Clostridia spores; 1AU (10 μl/spot of 100 AU/ml),0/7
same,Number of strains inhibited/Number of strains tested,Clostridia spores; 8AU (10 μl/spot of 800 AU/ml),0/7
same,Number of strains inhibited/Number of strains tested,Brochothrix; 1AU (10 μl/spot of 100 AU/ml),0/14
same,Number of strains inhibited/Number of strains tested,Brochothrix; 8AU (10 μl/spot of 800 AU/ml),0/14
same,Number of strains inhibited/Number of strains tested,Bacillus spores; 1AU (10 μl/spot of 100 AU/ml),5/5^b
same,Number of strains inhibited/Number of strains tested,Bacillus spores; [4],5/5
same,Number of strains inhibited/Number of strains tested,Bacillus spores; 8AU (10 μl/spot of 800 AU/ml),5/5^b
same,Number of strains inhibited/Number of strains tested,Bacillus spores; [3],5/5
same,Number of strains inhibited/Number of strains tested,Lactobacillus; 1AU (10 μl/spot of 100 AU/ml),1/17^m
same,Number of strains inhibited/Number of strains tested,Lactobacillus; [4],1/17
same,Number of strains inhibited/Number of strains tested,Lactobacillus; 8AU (10 μl/spot of 800 AU/ml),1/17^m
same,Number of strains inhibited/Number of strains tested,Lactobacillus; [3],2/17
same,Number of strains inhibited/Number of strains tested,Listeria; 1AU (10 μl/spot of 100 AU/ml),36/42^h
same,Number of strains inhibited/Number of strains tested,Listeria; [4],36/42
same,Number of strains inhibited/Number of strains tested,Listeria; 8AU (10 μl/spot of 800 AU/ml),42/42
same,Number of strains inhibited/Number of strains tested,Staphylococcus; 1AU (10 μl/spot of 100 AU/ml),1/7^cf
same,Number of strains inhibited/Number of strains tested,Staphylococcus; [4],1/7
same,Number of strains inhibited/Number of strains tested,Staphylococcus; 8AU (10 μl/spot of 800 AU/ml),7/7^cf
same,Number of strains inhibited/Number of strains tested,Staphylococcus; [3],7/7
same,Number of strains inhibited/Number of strains tested,Carnobacteria; 1AU (10 μl/spot of 100 AU/ml),17/19^j
same,Number of strains inhibited/Number of strains tested,Carnobacteria; [4],17/19
same,Number of strains inhibited/Number of strains tested,Carnobacteria; 8AU (10 μl/spot of 800 AU/ml),19/19
same,Number of strains inhibited/Number of strains tested,[1]; 1AU (10 μl/spot of 100 AU/ml),0/8
same,Number of strains inhibited/Number of strains tested,[1]; 8AU (10 μl/spot of 800 AU/ml),1/8^d
same,Number of strains inhibited/Number of strains tested,[1]; [3],1/8
same,Number of strains inhibited/Number of strains tested,Enterococcus; 1AU (10 μl/spot of 100 AU/ml),3/14^l
same,Number of strains inhibited/Number of strains tested,Enterococcus; [4],3/14
same,Number of strains inhibited/Number of strains tested,Enterococcus; 8AU (10 μl/spot of 800 AU/ml),9/14^l
same,Number of strains inhibited/Number of strains tested,Enterococcus; [3],9/14
same,Number of strains inhibited/Number of strains tested,Pediococcus; 1AU (10 μl/spot of 100 AU/ml),0/3
same,Number of strains inhibited/Number of strains tested,Pediococcus; 8AU (10 μl/spot of 800 AU/ml),0/3
same,Number of strains inhibited/Number of strains tested,Lactococcus; 1AU (10 μl/spot of 100 AU/ml),0/8
same,Number of strains inhibited/Number of strains tested,Lactococcus; 8AU (10 μl/spot of 800 AU/ml),1/8^n
same,Number of strains inhibited/Number of strains tested,Lactococcus; [3],1/8
same,Number of strains inhibited/Number of strains tested,[2]; 1AU (10 μl/spot of 100 AU/ml),3/5
same,Number of strains inhibited/Number of strains tested,[2]; 8AU (10 μl/spot of 800 AU/ml),5/5
Enterocin 900: broad spectrum bacteriocin of 71 amino acids (SEQ ID NO:30) produced by Enterococcus faecium 900 (MKKELLNKNEMSRIIGGKINWGNVGGSCVGGAVIGGALGGLGGAGGGCITGAIGSIWDQ; Brochocin-C peptide B;),Number of strains inhibited/Number of strains tested,Streptococcus; 1AU (10 μl/spot of 100 AU/ml),0/3
same,Number of strains inhibited/Number of strains tested,Streptococcus; 8AU (10 μl/spot of 800 AU/ml),0/3
same,Number of strains inhibited/Number of strains tested,Leuconostoc; 1AU (10 μl/spot of 100 AU/ml),1/9
same,Number of strains inhibited/Number of strains tested,Leuconostoc; 8AU (10 μl/spot of 800 AU/ml),1/9
same,Number of strains inhibited/Number of strains tested,G negative strains; 1AU (10 μl/spot of 100 AU/ml),0/29
same,Number of strains inhibited/Number of strains tested,G negative strains; 8AU (10 μl/spot of 800 AU/ml),0/29
same,Number of strains inhibited/Number of strains tested,Clostridia spores; 1AU (10 μl/spot of 100 AU/ml),0/7
same,Number of strains inhibited/Number of strains tested,Clostridia spores; 8AU (10 μl/spot of 800 AU/ml),0/7
same,Number of strains inhibited/Number of strains tested,Brochothrix; 1AU (10 μl/spot of 100 AU/ml),0/14
same,Number of strains inhibited/Number of strains tested,Brochothrix; 8AU (10 μl/spot of 800 AU/ml),0/14
same,Number of strains inhibited/Number of strains tested,Bacillus spores; 1AU (10 μl/spot of 100 AU/ml),0/5
same,Number of strains inhibited/Number of strains tested,Bacillus spores; 8AU (10 μl/spot of 800 AU/ml),0/5
same,Number of strains inhibited/Number of strains tested,Lactobacillus; 1AU (10 μl/spot of 100 AU/ml),2/17
same,Number of strains inhibited/Number of strains tested,Lactobacillus; 8AU (10 μl/spot of 800 AU/ml),5/17
same,Number of strains inhibited/Number of strains tested,Listeria; 1AU (10 μl/spot of 100 AU/ml),39/42
same,Number of strains inhibited/Number of strains tested,Listeria; 8AU (10 μl/spot of 800 AU/ml),39/42
same,Number of strains inhibited/Number of strains tested,Staphylococcus; 1AU (10 μl/spot of 100 AU/ml),1/7
same,Number of strains inhibited/Number of strains tested,Staphylococcus; 8AU (10 μl/spot of 800 AU/ml),1/7
same,Number of strains inhibited/Number of strains tested,Carnobacteria; 1AU (10 μl/spot of 100 AU/ml),1/19
same,Number of strains inhibited/Number of strains tested,Carnobacteria; 8AU (10 μl/spot of 800 AU/ml),7/19
same,Number of strains inhibited/Number of strains tested,[1]; 1AU (10 μl/spot of 100 AU/ml),2/8
same,Number of strains inhibited/Number of strains tested,[1]; 8AU (10 μl/spot of 800 AU/ml),3/8
same,Number of strains inhibited/Number of strains tested,Enterococcus; 1AU (10 μl/spot of 100 AU/ml),5/14
same,Number of strains inhibited/Number of strains tested,Enterococcus; 8AU (10 μl/spot of 800 AU/ml),8/14
same,Number of strains inhibited/Number of strains tested,Pediococcus; 1AU (10 μl/spot of 100 AU/ml),0/3
same,Number of strains inhibited/Number of strains tested,Pediococcus; 8AU (10 μl/spot of 800 AU/ml),0/3
same,Number of strains inhibited/Number of strains tested,Lactococcus; 1AU (10 μl/spot of 100 AU/ml),4/8
same,Number of strains inhibited/Number of strains tested,Lactococcus; 8AU (10 μl/spot of 800 AU/ml),4/8
same,Number of strains inhibited/Number of strains tested,[2]; 1AU (10 μl/spot of 100 AU/ml),0/5
same,Number of strains inhibited/Number of strains tested,[2]; 8AU (10 μl/spot of 800 AU/ml),2/5
